# Entries after “also recorded” stand apart in the source; their conditions may differ.
# How the values were obtained:
# [1] = tested on: isoflurane-anesthetized rats; experiment: infusion of bicuculline methiodide into the region of the DMH, simultaneous measurement of blood pressure, heart rate and IOP; type: in vivo, rat; settings: BMI 30 pmol/75 nL into the DMH vs saline vehicle
# Procedure: FIG. 2A-C Simultaneous measurement of blood pressure (FIG. 2A), heart rate (FIG. 2B), and IOP (FIG. 2C) in a series of isoflurane-anesthetized rats after infusion of bicuculline methiodide (30 pmol/75 nL; n=9) or saline vehicle (75 nL; n=10) into the region of the DMH. * indicates a significant difference (p<0.05) between the vehicle treated and the BMI treated group using a repeated measures ANOVA followed by post-hoc analysis for differences between timepoints using a t-test.
# To investigate whether orexin containing neurons located in the dorsornedial hypothalamus (DMH) and/or perifornical (PeF) area play a role in mediating the circadian fluctuations in IOP, isoflurane-anesthetized rats were administered orexin inhibitors and their vital functions were monitored.
# panic-prone rats = settings: 30 mg/kg i.p. prior to 15 min i.v. infusion of 0.5M sodium lactate
# From the text: Panic disorder is associated with disruption of central inhibitory gamma-aminobutyric acid (GABAergic) tone, and may contribute to panic attacks which are consistently provoked by ordinarily mild physical stressors such as mild osmotic disturbances (e.g., intravenous sodium lactate challenges). […] Orexin/hypocretin producing neurons are almost exclusive to dorsomedial hypothalamus/perifornical area and adjacent lateral hypothalamus, and play a critical role in maintaining wakefulness, vigilance and central sympathetic mobilization, which are key components of panic and anxiety. Experiments were conducted to investigate whether the administration of either a systemic orexin 1 antagonist or silencing the hypothalamic orexin gene product with RNA interference could block lactate-induced panic responses.
# [2] = tested on: isoflurane anesthetized rat; experiment: attenuation of physiologic responses to BMI microinjection into the DMH by systemic orexin-1 receptor antagonist; type: in vivo; settings: 30 mg/kg i.p.; BMI 20 pmol/50 nL into the DMH before and after antagonist; FIG. 3; listed as SB334861
# Procedure: FIG. 3 Continuous and simultaneous measurement of blood pressure, heart rate, and core body temperature in an isoflurane anesthetized rat after identical microinjections of BMI (20 pmol/50 nL) into the DMH (time marks 1 and 3) before and after systemic administration of the orexin-1 receptor antagonist SB334861 (30 mg/kg i.p.; time mark 2).
# Experiments were then conducted to determine whether an orexin-I receptor antagonist (SB334861) could attenuate the physiologic responses to chemical stimulation of the DMH. To test orexin inhibitors ability to attenuate the BMI stimulated response, BMI was administered to an isoflurane-anesthetized rat both before and after administration of the orexin inhibitor and the responses were monitored.
# [3] = target: T1, orexin receptor-1 (ORX 1) (Homo sapiens, UniProt O43613); settings: orexin A relative to orexin B; cited from earlier work
# T1 sequence (O43613 1-425): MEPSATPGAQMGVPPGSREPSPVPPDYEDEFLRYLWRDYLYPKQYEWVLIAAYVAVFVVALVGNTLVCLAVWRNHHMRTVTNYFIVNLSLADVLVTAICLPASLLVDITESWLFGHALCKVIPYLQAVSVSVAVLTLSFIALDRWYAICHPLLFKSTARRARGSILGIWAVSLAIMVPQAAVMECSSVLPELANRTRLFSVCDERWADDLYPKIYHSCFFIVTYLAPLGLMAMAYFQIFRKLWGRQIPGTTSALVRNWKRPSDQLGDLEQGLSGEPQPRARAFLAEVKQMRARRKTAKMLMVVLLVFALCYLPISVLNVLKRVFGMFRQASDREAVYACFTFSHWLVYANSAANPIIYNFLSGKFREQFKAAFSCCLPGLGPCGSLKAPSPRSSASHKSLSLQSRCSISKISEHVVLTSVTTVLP
molecule,measurement,setting,value
"C[N+]1(C)CCc2cc3c(cc2[C@H]1[C@@H]1OC(=O)c2c1ccc1c2OCO1)OCO3.[I-] [BMI, bicuculline methiodide]",blood pressure after chemical stimulation of the DMH,[1]; FIG. 2A,expected increases
same,heart rate after chemical stimulation of the DMH,[1]; FIG. 2B,expected increases
same,IOP after chemical stimulation of the DMH,[1]; FIG. 2C,evoked an increase
"Cc1nc2ccc(NC(=O)Nc3ccnc4cccnc34)cc2o1 [SB334867, 1-(2-methylbenzoxazol-6-yl)-3-[1,5]naphthyridin-4-yl urea]",lactate induced increases in core body temperature (thermogenic response),panic-prone rats; FIG. 1C,attenuated; also recorded: blocks
same,lactate induced increases in heart rate (cardioexcitatory response),panic-prone rats; FIG. 1D,attenuated; also recorded: blocks
same,BMI-evoked increase in blood pressure,[2],significant attenuation
same,BMI-evoked increase in core body temperature,[2],significant attenuation
same,BMI-evoked increase in heart rate,[2],significant attenuation
"orexin A: 33-amino acid neuropeptide, endogenous ligand of orexin receptors (QPLPDCCRQKTCSCRLYELLHGAGNHAAGILTL; Orexin-A; UniProt O43612 34-66, looked up)",affinity of ORX 1 for orexin A greater than for orexin B,[3],1 order of magnitude

# Source: patent US8980910B2, “Treatment of glaucoma” (Indiana University Research and Technology Corporation, priority 2011, dated 2015)
